The results in this text go back to PubChem BioAssay AID588356 (Sanford-Burnham Center for Chemical Genomics, 2011).

Calls of active or inactive are those of the source.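 How the source made its calls: active means mean IC50 below 20 µM; inactive means the rest.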

The test addresses Hexokinase-1 (Homo sapiens) (UniProt P19367). Briefly: hexokinase 1 activity inhibitors, potency – biochemical, set 2, resazurin fluorescence coupled readout, selectivity assay for HKDC1 inhibitor project, SAR follow-up (AID 588356). The following applies: HK1 enzyme, G6PDH/diaphorase resazurin fluorescence. In general terms: Resazurin is reduced to fluorescent resorufin, in cell work by metabolically active cells.

Hexokinase-1 (Homo sapiens), sequence (P19367 whole entry, looked up): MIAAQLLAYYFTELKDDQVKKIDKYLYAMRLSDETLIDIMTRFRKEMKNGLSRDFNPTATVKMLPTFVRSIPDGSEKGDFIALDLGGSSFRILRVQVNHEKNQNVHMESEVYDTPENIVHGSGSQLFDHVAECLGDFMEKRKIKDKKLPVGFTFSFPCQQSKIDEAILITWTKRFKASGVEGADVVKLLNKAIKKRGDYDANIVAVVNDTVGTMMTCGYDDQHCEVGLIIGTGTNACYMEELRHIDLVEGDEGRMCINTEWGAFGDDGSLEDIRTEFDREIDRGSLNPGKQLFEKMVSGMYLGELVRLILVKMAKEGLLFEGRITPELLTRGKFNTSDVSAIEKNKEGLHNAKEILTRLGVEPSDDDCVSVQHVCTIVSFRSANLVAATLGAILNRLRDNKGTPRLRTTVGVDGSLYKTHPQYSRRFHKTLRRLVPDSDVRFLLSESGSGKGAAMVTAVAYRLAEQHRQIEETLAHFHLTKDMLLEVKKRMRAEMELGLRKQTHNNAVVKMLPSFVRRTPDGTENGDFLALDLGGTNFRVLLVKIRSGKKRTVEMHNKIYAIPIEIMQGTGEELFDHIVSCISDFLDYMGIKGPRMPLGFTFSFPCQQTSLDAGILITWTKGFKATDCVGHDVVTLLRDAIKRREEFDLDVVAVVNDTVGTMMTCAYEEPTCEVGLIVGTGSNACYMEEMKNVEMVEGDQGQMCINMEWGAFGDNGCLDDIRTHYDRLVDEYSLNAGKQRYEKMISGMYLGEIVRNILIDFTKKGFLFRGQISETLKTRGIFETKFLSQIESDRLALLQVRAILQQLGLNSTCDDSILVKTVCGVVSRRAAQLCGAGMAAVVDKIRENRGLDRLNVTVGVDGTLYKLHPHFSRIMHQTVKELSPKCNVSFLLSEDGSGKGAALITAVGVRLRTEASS

As for `COc1cc2c(cc1OC)-c1cc(N3CCc4ccccc4C3)nc(=O)n1CC2`, the IC50 result was “inactive”.
